Test results as given in US12331035B2, “Bicyclic compound and use thereof” (SK BIOPHARMACEUTICALS CO., LTD., priority 2019, dated 2025).
Counter-ions that a name gives are not always drawn.

Each compound was assayed against T1, PRMT5-MEP50 enzyme complex (Homo sapiens, UniProt O14744) (assay: In vitro PRMT5 enzyme activity assay (methylation of histone H4 arginine H4R3, ELISA absorbance at 450 nm)). Conditions: S-adenosylmethionine, histone H4 peptide, 2 hours at room temperature, 8 points 10 μM to 0.128 nM.
T1 construct: purchased BPS Bioscience (USA) 51045
Assay type: biochemical
How it was run: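 Human PRMT5-MEP50 (5 μg/mL working stock) with 2 μM SAM stock on histone H4 (1-20) peptide-coated plates, compound 8-point 1:5 series from 10 μM, 2 h at room temperature. H4R3 methylation detected by antibody/HRP ELISA, absorbance 450 nm; IC50 calculated.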

T1 sequence (O14744 2-637 limits assumed): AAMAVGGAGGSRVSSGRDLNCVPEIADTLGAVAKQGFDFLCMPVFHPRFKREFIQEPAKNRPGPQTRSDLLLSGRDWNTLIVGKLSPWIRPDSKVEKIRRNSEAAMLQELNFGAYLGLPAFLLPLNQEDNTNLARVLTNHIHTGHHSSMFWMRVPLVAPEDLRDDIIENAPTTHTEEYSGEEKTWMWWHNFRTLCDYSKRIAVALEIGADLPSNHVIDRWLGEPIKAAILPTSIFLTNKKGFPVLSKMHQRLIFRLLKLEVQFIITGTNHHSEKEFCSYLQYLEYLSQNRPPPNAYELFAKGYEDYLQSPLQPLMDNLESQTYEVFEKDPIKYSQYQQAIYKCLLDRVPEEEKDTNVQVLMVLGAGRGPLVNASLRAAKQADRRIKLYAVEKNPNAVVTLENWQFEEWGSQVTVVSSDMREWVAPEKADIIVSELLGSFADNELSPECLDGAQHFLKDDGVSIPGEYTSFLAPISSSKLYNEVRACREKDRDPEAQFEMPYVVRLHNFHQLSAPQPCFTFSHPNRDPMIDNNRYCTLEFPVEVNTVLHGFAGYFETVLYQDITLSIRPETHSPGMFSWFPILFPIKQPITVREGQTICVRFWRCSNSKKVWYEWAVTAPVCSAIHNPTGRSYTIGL
T1 sequence (Q9BQA1 2-342 partner limits assumed): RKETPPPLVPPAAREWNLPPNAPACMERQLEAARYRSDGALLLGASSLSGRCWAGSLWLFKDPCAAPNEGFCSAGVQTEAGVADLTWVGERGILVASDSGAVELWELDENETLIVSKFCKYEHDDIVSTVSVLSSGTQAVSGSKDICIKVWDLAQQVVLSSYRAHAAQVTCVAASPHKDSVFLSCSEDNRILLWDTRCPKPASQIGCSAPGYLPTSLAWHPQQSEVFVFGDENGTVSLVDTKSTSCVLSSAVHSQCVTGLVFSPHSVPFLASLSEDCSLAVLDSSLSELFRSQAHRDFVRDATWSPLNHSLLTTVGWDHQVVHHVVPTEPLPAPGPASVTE

Row | IC50 | Structure (SMILES)
1 | 0.001 to 0.1 µM | CN1CCC(Oc2ccc3c(c2)CCN(C[C@H](O)CN2CCc4ccccc4C2)C3=O)C1 (stereo partly drawn) [Example 133, 2-[(2R)-3-(3,4-dihydro-1H-isoquinolin-2-yl)-2-hydroxy-propyl]-6-(1-methylpyrrolidin-3-yl)oxy-3,4-dihydroisoquinolin-1-one]
2 | 1 to 10 µM | CC(=O)N1CCC(c2ccc3c(c2)CCN(C[C@H](O)CN2CCc4ccccc4C2)C3=O)CC1 [Example 67, 6-(1-acetyl-4-piperidyl)-2-[(2R)-3-(3,4-dihydro-1H-isoquinolin-2-yl)-2-hydroxy-propyl]-3,4-dihydroisoquinolin-1-one]
3 | 0.001 to 0.1 µM | CC(=O)N1CC2CC1CN2c1ccc2c(c1)CCN(C[C@H](O)CN1CCc3ccccc3C1)C2=O (stereo partly drawn) [Example 81, 6-(5-acetyl-2,5-diazabicyclo[2.2.1]heptan-2-yl)-2-[(2R)-3-(3,4-dihydro-1H-isoquinolin-2-yl)-2-hydroxy-propyl]-3,4-dihydroisoquinolin-1-one]
4 | 0.1 to 1 µM | CC(=O)N1CCN(c2cc(F)c3c(c2)CCN(C[C@H](O)CN2CCc4ccccc4C2)C3=O)CC1 [Example 128, 6-(4-acetylpiperazin-1-yl)-2-[(2R)-3-(3,4-dihydro-1H-isoquinolin-2-yl)-2-hydroxy-propyl]-8-fluoro-3,4-dihydroisoquinolin-1-one]
5 | 0.1 to 1 µM | CN(C)C1CCN(c2ccc3c(c2)CCN(C[C@H](O)CN2CCc4ccccc4C2)C3=O)CC1 [Example 110, 2-[(2R)-3-(3,4-dihydro-1H-isoquinolin-2-yl)-2-hydroxy-propyl]-6-[4-(dimethylamino)-1-piperidyl]-3,4-dihydroisoquinolin-1-one]
6 | 0.001 to 0.1 µM | CC(=O)N1CC=C(c2ccc3c(c2)CCN(C[C@H](O)CN2CCc4ccccc4C2)C3=O)CC1 [Example 61, 6-(1-acetyl-3,6-dihydro-2H-pyridin-4-yl)-2-[(2R)-3-(3,4-dihydro-1H-isoquinolin-2-yl)-2-hydroxy-propyl]-3,4-dihydroisoquinolin-1-one]
7 | 0.001 to 0.1 µM | O=C1c2ccc(N3CCC(N4CCCC4)CC3)cc2CCN1C[C@H](O)CN1CCc2ccccc2C1 [Example 106, 2-[(2R)-3-(3,4-dihydro-1H-isoquinolin-2-yl)-2-hydroxy-propyl]-6-(4-pyrrolidin-1-yl-1-piperidyl)-3,4-dihydroisoquinolin-1-one]
8 | 0.1 to 1 µM | O=C1c2ccc(N3CCCC(O)C3)cc2CCN1C[C@H](O)CN1CCc2ccccc2C1 (stereo partly drawn) [Example 38, 2-[(2R)-3-(3,4-dihydro-1H-isoquinolin-2-yl)-2-hydroxy-propyl]-6-(3-hydroxy-1-piperidyl)-3,4-dihydroisoquinolin-1-one]
9 | 0.001 to 0.1 µM | O=C1c2ccc(N3CCN(C4CCOC4)CC3)cc2CCN1C[C@H](O)CN1CCc2ccccc2C1 (stereo partly drawn) [Example 127, 2-[(2R)-3-(3,4-dihydro-1H-isoquinolin-2-yl)-2-hydroxy-propyl]-6-(4-tetrahydrofuran-3-ylpiperazin-1-yl)-3,4-dihydroisoquinolin-1-one]
10 | 0.1 to 1 µM | CC(=O)N1CCC(Nc2ccc3c(c2)CCN(C[C@H](O)CN2CCc4ccccc4C2)C3=O)C1 (stereo partly drawn) [Example 99, 6-[(1-acetylpyrrolidin-3-yl)amino]-2-[(2R)-3-(3,4-dihydro-1H-isoquinolin-2-yl)-2-hydroxy-propyl]-3,4-dihydroisoquinolin-1-one]
11 | 0.1 to 1 µM | CC(C)N1CCN(c2ccc3c(c2)CCN(C[C@H](O)CN2CCc4ccccc4C2)C3=O)CC1=O [Example 85, 2-[(2R)-3-(3,4-dihydro-1H-isoquinolin-2-yl)-2-hydroxy-propyl]-6-(4-isopropyl-3-oxo-piperazin-1-yl)-3,4-dihydroisoquinolin-1-one]
12 | 0.1 to 1 µM | CN(C)CC1CCN(c2ccc3c(c2)CCN(C[C@H](O)CN2CCc4ccccc4C2)C3=O)CC1 [Example 117, 2-[(2R)-3-(3,4-dihydro-1H-isoquinolin-2-yl)-2-hydroxy-propyl]-6-[4-[(dimethylamino)methyl]-1-piperidyl]-3,4-dihydroisoquinolin-1-one]
13 | 0.001 to 0.1 µM | CC1CN(c2ccc3c(c2)CCN(C[C@H](O)CN2CCc4ccccc4C2)C3=O)CC(=O)N1C (stereo partly drawn) [Example 103, 2-[(2R)-3-(3,4-dihydro-1H-isoquinolin-2-yl)-2-hydroxy-propyl]-6-(3,4-dimethyl-5-oxo-piperazin-1-yl)-3,4-dihydroisoquinolin-1-one]
14 | 0.1 to 1 µM | O=C1c2ccc(NC3COC3)cc2CCN1C[C@H](O)CN1CCc2ccccc2C1 [Example 51, 2-[(2R)-3-(3,4-dihydro-1H-isoquinolin-2-yl)-2-hydroxy-propyl]-6-(oxetan-3-ylamino)-3,4-dihydroisoquinolin-1-one]
15 | 0.001 to 0.1 µM | CC(=O)N1CCN(Cc2ccc3c(c2)CCN(C[C@H](O)CN2CCc4ccccc4C2)C3=O)CC1 [Example 68, 6-[(4-acetylpiperazin-1-yl)methyl]-2-[(2R)-3-(3,4-dihydro-1H-isoquinolin-2-yl)-2-hydroxy-propyl]-3,4-dihydroisoquinolin-1-one]
16 | 0.1 to 1 µM | CC(=O)N1CC(Oc2ccc3c(c2)CCN(C[C@H](O)CN2CCc4ccccc4C2)C3=O)C1 [Example 96, 6-(1-acetylazetidin-3-yl)oxy-2-[(2R)-3-(3,4-dihydro-1H-isoquinolin-2-yl)-2-hydroxy-propyl]-3,4-dihydroisoquinolin-1-one]

Row | IC50 | Structure (SMILES)
17 | 0.001 to 0.1 µM | CN(C)C1CCN(c2ccc3c(c2)C(C)(C)CN(C[C@H](O)CN2CCc4ccccc4C2)C3=O)CC1 [Example 126, 2-[(2R)-3-(3,4-dihydro-1H-isoquinolin-2-yl)-2-hydroxy-propyl]-6-[4-(dimethylamino)-1-piperidyl]-4,4-dimethyl-3H-isoquinolin-1-one; dihydrochloride]
18 | 0.1 to 1 µM | O=C1c2ccc(N3CCOC3=O)cc2CCN1C[C@H](O)CN1CCc2ccccc2C1 [Example 45, 3-[2-[(2R)-3-(3,4-dihydro-1H-isoquinolin-2-yl)-2-hydroxy-propyl]-1-oxo-3,4-dihydroisoquinolin-6-yl]oxazolidin-2-one]
19 | 0.001 to 0.1 µM | CC(=O)N(C)C1CCN(c2ccc3c(c2)CCN(C[C@H](O)CN2CCc4ccccc4C2)C3=O)CC1 [Example 90, N-[1-[2-[(2R)-3-(3,4-dihydro-1H-isoquinolin-2-yl)-2-hydroxy-propyl]-1-oxo-3,4-dihydroisoquinolin-6-yl]-4-piperidyl]-N-methyl-acetamide]
20 | 0.1 to 1 µM | CC(=O)N1CCC(COc2ccc3c(c2)CCN(C[C@H](O)CN2CCc4ccccc4C2)C3=O)CC1 [Example 83, 6-[(1-acetyl-4-piperidyl)methoxy]-2-[(2R)-3-(3,4-dihydro-1H-isoquinolin-2-yl)-2-hydroxy-propyl]-3,4-dihydroisoquinolin-1-one]
21 | 0.001 to 0.1 µM | C[C@H]1CN(c2ccc3c(c2)CCN(C[C@H](O)CN2CCc4ccccc4C2)C3=O)CCO1 [Example 47, 2-[(2R)-3-(3,4-dihydro-1H-isoquinolin-2-yl)-2-hydroxy-propyl]-6-[(2S)-2-methylmorpholin-4-yl]-3,4-dihydroisoquinolin-1-one]
22 | 0.001 to 0.1 µM | CC(C)(C)OC(=O)N1CC=C(c2ccc3c(c2)CCN(C[C@H](O)CN2CCc4ccccc4C2)C3=O)CC1 [Example 56, tert-butyl 4-[2-[(2R)-3-(3,4-dihydro-1H-isoquinolin-2-yl)-2-hydroxy-propyl]-1-oxo-3,4-dihydroisoquinolin-6-yl]-3,6-dihydro-2H-pyridine-1-carboxylate]
23 | 1 to 10 µM | O=C1c2ccc(CN3CCOCC3)cc2CCN1C[C@H](O)CN1CCc2ccccc2C1 [Example 43, 2-[(2R)-3-(3,4-dihydro-1H-isoquinolin-2-yl)-2-hydroxy-propyl]-6-(morpholinomethyl)-3,4-dihydroisoquinolin-1-one]
24 | 0.001 to 0.1 µM | CC(C)C(=O)N1CCN(c2ccc3c(c2)CCN(C[C@H](O)CN2CCc4ccccc4C2)C3=O)CC1 [Example 70, 2-[(2R)-3-(3,4-dihydro-1H-isoquinolin-2-yl)-2-hydroxy-propyl]-6-[4-(2-methylpropanoyl)piperazin-1-yl]-3,4-dihydroisoquinolin-1-one]
25 | 0.001 to 0.1 µM | O=C1c2ccc(N3CCOCC3)nc2CCN1C[C@H](O)CN1CCc2ccccc2C1 [Example 89, 6-[(2R)-3-(3,4-dihydro-1H-isoquinolin-2-yl)-2-hydroxy-propyl]-2-morpholino-7,8-dihydro-1,6-naphthyridin-5-one]
26 | 0.001 to 0.1 µM | COC1CCN(c2ccc3c(c2)CCN(C[C@H](O)CN2CCc4ccccc4C2)C3=O)CC1 [Example 48, 2-[(2R)-3-(3,4-dihydro-1H-isoquinolin-2-yl)-2-hydroxy-propyl]-6-(4-methoxy-1-piperidyl)-3,4-dihydroisoquinolin-1-one]
27 | 0.001 to 0.1 µM | O=C1c2ccc(-c3cccnc3)cc2CCN1C[C@H](O)CN1CCc2ccccc2C1 [Example 9, 2-[(2R)-3-(3,4-dihydro-1H-isoquinolin-2-yl)-2-hydroxy-propyl]-6-(3-pyridyl)-3,4-dihydroisoquinolin-1-one]
28 | 1 to 10 µM | CC1COCCN1c1ccc2c(c1)CCN(C[C@H](O)CN1CCc3ccccc3C1)C2=O (stereo partly drawn) [Example 40, 2-[(2R)-3-(3,4-dihydro-1H-isoquinolin-2-yl)-2-hydroxy-propyl]-6-(3-methylmorpholin-4-yl)-3,4-dihydroisoquinolin-1-one]
29 | 1 to 10 µM | CCOC(=O)N1CCN(c2ccc3c(c2)CCN(C[C@H](O)CN2CCc4ccccc4C2)C3=O)CC1 [Example 65, ethyl 4-[2-[(2R)-3-(3,4-dihydro-1H-isoquinolin-2-yl)-2-hydroxy-propyl]-1-oxo-3,4-dihydroisoquinolin-6-yl]piperazine-1-carboxylate]
30 | 0.001 to 0.1 µM | O=C1c2ccc(OC3CCOCC3)cc2CCN1C[C@H](O)CN1CCc2ccccc2C1 [Example 91, 2-[(2R)-3-(3,4-dihydro-1H-isoquinolin-2-yl)-2-hydroxy-propyl]-6-tetrahydropyran-4-yloxy-3,4-dihydroisoquinolin-1-one]
31 | 0.001 to 0.1 µM | COC1CCN(Cc2ccc3c(c2)CCN(C[C@H](O)CN2CCc4ccccc4C2)C3=O)CC1 [Example 66, 2-[(2R)-3-(3,4-dihydro-1H-isoquinolin-2-yl)-2-hydroxy-propyl]-6-[(4-methoxy-1-piperidyl)methyl]-3,4-dihydroisoquinolin-1-one]
